Measurements reported in patent publication US20240269238A1, “Therapeutic Regimens and Methods for Reducing Body Weight in a Subject with Fatty Liver Disease using a GLP-1R and GCGR Agonist” (Spitfire Pharma LLC, priority 2022, published 2024).
Entries after “also recorded” stand apart in the source; their conditions may differ.

Assays:
[1] = test system: alanine aminotransferase (ALT); assay: Phase 1 12-week NAFLD study (Example 1): serum ALT; assay type: in vivo, human; conditions: for ALT reduction: week 12; for decline in serum ALT levels: subjects with baseline serum ALT above 30 IU/L, 12 weeks
From the text: (§1) Provided herein is disclosure of a Phase 1, multicenter, randomized, double-blind, placebo-controlled study to assess the effects of Pemvidutide (also termed herein as ALT-801), the safety of Pemvidutide and effects on hepatic fat fraction, anthropometric parameters, lipid metabolism, inflammatory markers and fibrosis markers in diabetic and non-diabetic (type 2 diabetes) overweight and obese (BMI 28.0 kg/m^2) subjects with NAFLD. This study was designed to assess changes in hepatic fat fraction by MRI-PDFF (magnetic resonance imaging-proton density fat fraction) in diabetic and non-diabetic overweight and obese subjects with NAFLD after 12 weeks of ALT-801 treatment. The trial was conducted without adjunctive diet and exercise interventions. The study assessed changes in body weight, lipid metabolism, metabolic markers, and inflammatory markers and safety and tolerability of ALT-801 after 12 weeks of treatment. Subjects were stratified for the presence or absence of diabetes at baseline. Fibroscan and cT1 assessments evaluated changes in liver inflammatory and fibrotic activity at the end of 12 weeks of treatment.
(§2) The study, described in this example, was carried out in 94 subjects overweight and obese (body mass index [BMI] ≥28.0 kg/m^2) Type 2 diabetic and non-diabetic subjects with nonalcoholic fatty liver disease (NAFLD) over about 4.5 months, including up to a 35-day screening period, and 85-day treatment period and a 25-day follow-up period, with treatment with ALT-801 (a composition comprising SEQ ID NO.: 1, “study medication”) or placebo administered by subcutaneous (SC) injection once weekly for up to twelve (12) doses.
(§3) The safety objective of this study was to assess the safety and tolerability of ALT-801 in 18-65 years old subjects with NAFLD (NAFLD without significant fibrosis, defined as FibroScan® controlled attenuation parameter (CAP) ≥280 dB/m and liver stiffness measurement (LSM)<10 kPa (i.e., indicating the absence of significant fibrosis), magnetic resonance imaging derived proton density fat fraction (MRI-PDFF) ≥10%), hemoglobin Alc (HbAlc) of less than 9.5%, and alanine aminotransferase (ALT) or aspartate aminotransferase (AST) values of ≤[…]. The pharmacodynamic (PD) objectives of this study were to evaluate the effects of ALT-801 on hepatic fat fraction, anthropometric parameters, lipid metabolism, metabolic markers, inflammatory markers, fibrosis markers, and lipotoxicity markers. The pharmacokinetic (PK) objectives of this study were to evaluate the effects of ALT-801 and metformin exposure (drug interactions) on the subjects (e.g., ALT-801 and metformin concentrations in blood over time).
(§4) After providing informed consent, subjects underwent a screening period of up to 35 days. Subjects were instructed on how to maintain their normal diets, alcohol consumption and physical activities and not to start any new diets, supplements, or exercise programs at any time while participating in the study. Counseling was provided on diet and exercise on the Day 1 visit and reinforced at subsequent visits. Study subjects were randomized 1:1:1:1 to one of the following treatment arms: 1) ALT-8011.2 mg SC once weekly for 12 weeks; 2) ALT-8011.8 mg SC once weekly for 12 weeks; 3) ALT-801 0.6 mg SC at week 1, 1.2 mg SC at week 2, 1.8 mg SC once weekly for 2 weeks (weeks 3 and 4), and 2.4 mg SC once weekly for weeks 5 through 12; or, 4) placebo SC once weekly for 12 weeks. Subjects were stratified by presence or absence of diabetes at baseline. Subjects in the treatment arm with a final therapeutic dose of 2.4 mg underwent a rapid 4-week dose escalation to improve tolerability and reduce the possibility of adverse events. […] See FIG. 7, second 2.4 mg column as compared to the first 2.4 mg column (this study). See WO 2022/125598. […]

[2] = Phase 1 12-week NAFLD study (Example 1): safety, tolerability, serum lipids, glycemic control, heart rate; assay type: in vivo, human; conditions: for AE leading to treatment discontinuation, number of subjects: gastrointestinal intolerance
From the text: as §1, §2, §3, §4

SMILES: CC[C@H](C)[C@H](NC(=O)[C@H](Cc1ccccc1)NC(=O)[C@H](CCC(=O)O)NC(=O)[C@@H]1CCCCNC(=O)CC[C@H](NC(=O)[C@H](CC(=O)O)NC(=O)[C@H](CC(C)C)NC(=O)[C@H](Cc2ccc(O)cc2)NC(=O)[C@H](CCCCN)NC(=O)[C@H](CO)NC(=O)[C@H](Cc2ccc(O)cc2)NC(=O)[C@H](CC(=O)O)NC(=O)[C@H](CO)NC(=O)[C@@H](NC(=O)[C@H](Cc2ccccc2)NC(=O)[C@@H](NC(=O)CNC(=O)[C@H](CCC(N)=O)NC(=O)C(C)(C)NC(=O)[C@@H](N)Cc2c[nH]cn2)[C@@H](C)O)[C@H](C)O)C(=O)N[C@@H](CCCCNC(=O)C2O[C@@H](OCCCCCCCCCCCCCCCCCC(=O)O)C(O)C(O)[C@@H]2O)C(=O)N[C@@H](C)C(=O)N[C@@H](C)C(=O)N1)C(=O)N[C@@H](CCC(N)=O)C(=O)N[C@@H](Cc1c[nH]c2ccccc12)C(=O)N[C@@H](CC(C)C)C(=O)N[C@@H](CC(C)C)C(=O)N[C@@H](CCC(N)=O)C(=O)N[C@H](C(N)=O)[C@@H](C)O (some centres unmarked) [ALT-801, Pemvidutide]
- ALT reduction ([1]; all subjects, 1.2 mg): −11.2%
- ALT reduction ([1]; all subjects, 1.8 mg): −13.8%
- ALT reduction ([1]; all subjects, 'the 1.8 mg dose' as printed (second mention)): −13.6%
- ALT reduction ([1]; subjects with baseline ALT >=30 IU/L, 1.2 mg): −17.8%
- ALT reduction ([1]; subjects with baseline ALT >=30 IU/L, 1.8 mg): −20.8%
- ALT reduction ([1]; subjects with baseline ALT >=30 IU/L, 2.4 mg): −27%
- decline in serum ALT levels ([1]; 2.4 mg dose cohort): 27.0 IU/L
- decline in serum ALT levels ([1]; all dose levels): more than 17 IU/L
- AE leading to treatment discontinuation, rate ([2]; 1.8 mg arm, 12 weeks): 4.3%
- AE leading to treatment discontinuation, number of subjects ([2]; 1.8 mg arm, 12 weeks): 1
- AE leading to treatment discontinuation, rate ([2]; 2.4 mg arm, 12 weeks): 4.2%
- AE leading to treatment discontinuation, number of subjects ([2]; 2.4 mg arm, 12 weeks): 1
- AEs leading to treatment discontinuation (in words) ([2]; 12 weeks): very low rates
- clinically significant ALT elevations (3-fold or greater the upper limit of normal) ([2]; 12 weeks): No clinically significant ALT elevations; also recorded: no three-fold or greater ALT elevations were observed
- glycemic control (HbA1c, fasting glucose) ([2]; 12 weeks): unaffected
- increases in heart rate (HR) ([2]; 12 weeks): 1-3 beat-per-minute (bpm)
- serious and severe adverse events ([2]; 12 weeks treatment): No serious adverse events (AEs), severe AEs were observed; also recorded: no severe or serious AEs were observed
- symptoms experienced by subjects (severity) ([2]; 12 weeks treatment): predominantly mild and transient
- serum lipids ([2]; after 12 weeks): not significantly altered
- tolerability ([2]; each treatment arm (FIG. 7)): well tolerated
